Experimental data published in ChEMBL document CHEMBL5653615 (J Biol Chem, 2013).

Columns and labels:
[1] = biological target: T1, Serine/threonine-protein kinase VRK1 (Homo sapiens) (UniProt Q99986); assay: Inhibition of human VRK1 at 500 nM by HotSpot assay relative to control
T1 sequence (whole entry): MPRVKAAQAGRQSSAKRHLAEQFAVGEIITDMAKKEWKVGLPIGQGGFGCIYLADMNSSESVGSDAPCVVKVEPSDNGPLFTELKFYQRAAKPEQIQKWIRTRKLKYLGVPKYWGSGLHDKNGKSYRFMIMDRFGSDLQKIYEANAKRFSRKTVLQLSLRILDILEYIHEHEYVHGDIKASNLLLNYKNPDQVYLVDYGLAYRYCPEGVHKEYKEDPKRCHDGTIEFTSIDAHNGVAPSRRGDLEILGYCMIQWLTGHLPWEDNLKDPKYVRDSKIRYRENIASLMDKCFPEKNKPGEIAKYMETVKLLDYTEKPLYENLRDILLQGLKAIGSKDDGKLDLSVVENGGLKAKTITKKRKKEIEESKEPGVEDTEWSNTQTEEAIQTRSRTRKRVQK

[2] = biological target: Serine/threonine-protein kinase PAK 1 (Homo sapiens) (UniProt Q13153); assay: Inhibition of human PAK1 at 500 nM by HotSpot assay relative to control
Sequence of Serine/threonine-protein kinase PAK 1 (Homo sapiens) (Q13153 whole entry): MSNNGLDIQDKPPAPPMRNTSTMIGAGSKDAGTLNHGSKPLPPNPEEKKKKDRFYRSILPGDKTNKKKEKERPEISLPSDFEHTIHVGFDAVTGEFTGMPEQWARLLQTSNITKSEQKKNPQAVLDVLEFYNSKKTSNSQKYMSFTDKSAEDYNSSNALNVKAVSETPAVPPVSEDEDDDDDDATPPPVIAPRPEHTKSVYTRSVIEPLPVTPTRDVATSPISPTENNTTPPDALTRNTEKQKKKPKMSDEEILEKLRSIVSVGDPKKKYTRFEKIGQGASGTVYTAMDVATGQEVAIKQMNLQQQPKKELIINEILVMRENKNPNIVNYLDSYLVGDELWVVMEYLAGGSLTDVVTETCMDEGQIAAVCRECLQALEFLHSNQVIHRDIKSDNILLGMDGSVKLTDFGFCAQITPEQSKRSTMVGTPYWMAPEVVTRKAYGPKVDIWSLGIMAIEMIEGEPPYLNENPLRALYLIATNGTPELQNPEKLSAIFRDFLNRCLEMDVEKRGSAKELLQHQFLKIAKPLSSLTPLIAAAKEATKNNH

[3] = biological target: T2, Serine/threonine-protein kinase Nek3 (Homo sapiens) (UniProt P51956); assay: Inhibition of human NEK3 at 500 nM by HotSpot assay relative to control
T2 sequence (whole entry): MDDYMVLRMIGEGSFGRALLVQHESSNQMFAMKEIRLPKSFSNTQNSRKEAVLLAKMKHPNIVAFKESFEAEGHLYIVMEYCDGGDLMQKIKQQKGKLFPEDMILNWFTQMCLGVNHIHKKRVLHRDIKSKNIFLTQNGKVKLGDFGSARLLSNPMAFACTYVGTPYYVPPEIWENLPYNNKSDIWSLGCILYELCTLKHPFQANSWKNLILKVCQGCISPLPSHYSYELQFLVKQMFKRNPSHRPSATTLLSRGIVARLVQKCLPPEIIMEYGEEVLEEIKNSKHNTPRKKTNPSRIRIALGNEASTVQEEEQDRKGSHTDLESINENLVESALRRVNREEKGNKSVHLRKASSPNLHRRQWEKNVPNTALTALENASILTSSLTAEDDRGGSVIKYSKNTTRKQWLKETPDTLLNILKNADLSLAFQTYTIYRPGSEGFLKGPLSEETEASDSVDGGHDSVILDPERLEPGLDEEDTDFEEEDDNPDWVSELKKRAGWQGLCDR

[4] = biological target: Macrophage colony-stimulating factor 1 receptor (Homo sapiens) (UniProt P07333); assay: Inhibition of human FMS at 500 nM by HotSpot assay relative to control
Sequence of Macrophage colony-stimulating factor 1 receptor (Homo sapiens) (P07333 whole entry): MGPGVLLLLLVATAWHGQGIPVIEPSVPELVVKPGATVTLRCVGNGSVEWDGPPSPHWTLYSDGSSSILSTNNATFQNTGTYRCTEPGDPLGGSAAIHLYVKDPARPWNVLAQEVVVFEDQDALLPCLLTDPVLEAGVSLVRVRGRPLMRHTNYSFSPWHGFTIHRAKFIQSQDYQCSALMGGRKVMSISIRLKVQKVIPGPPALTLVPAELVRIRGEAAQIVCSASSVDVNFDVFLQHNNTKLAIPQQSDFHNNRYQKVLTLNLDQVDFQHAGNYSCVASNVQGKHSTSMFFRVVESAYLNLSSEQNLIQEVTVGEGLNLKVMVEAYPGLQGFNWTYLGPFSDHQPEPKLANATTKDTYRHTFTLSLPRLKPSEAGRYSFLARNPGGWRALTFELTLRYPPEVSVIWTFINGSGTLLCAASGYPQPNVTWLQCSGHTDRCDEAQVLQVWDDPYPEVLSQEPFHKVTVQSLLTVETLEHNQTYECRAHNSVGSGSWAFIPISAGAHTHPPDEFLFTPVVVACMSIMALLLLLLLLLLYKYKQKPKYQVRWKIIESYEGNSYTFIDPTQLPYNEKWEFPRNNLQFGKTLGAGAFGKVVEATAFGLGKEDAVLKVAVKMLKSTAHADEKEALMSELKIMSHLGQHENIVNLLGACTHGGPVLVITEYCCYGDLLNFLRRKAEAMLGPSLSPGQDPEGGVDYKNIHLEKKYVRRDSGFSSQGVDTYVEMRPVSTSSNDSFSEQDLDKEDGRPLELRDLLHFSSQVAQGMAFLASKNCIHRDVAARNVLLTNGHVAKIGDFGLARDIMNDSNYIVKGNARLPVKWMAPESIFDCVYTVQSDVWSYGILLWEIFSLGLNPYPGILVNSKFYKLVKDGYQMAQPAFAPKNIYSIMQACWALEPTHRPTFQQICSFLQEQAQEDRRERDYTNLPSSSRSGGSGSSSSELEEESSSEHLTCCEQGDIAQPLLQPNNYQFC

[5] = biological target: Serine/threonine-protein kinase 16 (Homo sapiens) (UniProt O75716); assay: Inhibition of human STK16 at 500 nM by HotSpot assay relative to control
Sequence of Serine/threonine-protein kinase 16 (Homo sapiens) (O75716 whole entry): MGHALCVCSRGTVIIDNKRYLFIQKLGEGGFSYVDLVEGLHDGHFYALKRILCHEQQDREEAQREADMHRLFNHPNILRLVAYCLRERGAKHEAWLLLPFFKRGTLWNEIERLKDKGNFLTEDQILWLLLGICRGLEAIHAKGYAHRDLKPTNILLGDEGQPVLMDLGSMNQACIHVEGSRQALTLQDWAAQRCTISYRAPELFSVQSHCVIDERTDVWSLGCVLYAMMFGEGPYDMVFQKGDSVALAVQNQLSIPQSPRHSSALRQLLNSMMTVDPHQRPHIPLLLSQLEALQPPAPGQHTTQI

[6] = biological target: T3, Mitogen-activated protein kinase kinase kinase 5 (Homo sapiens) (UniProt Q99683); assay: Inhibition of human ASK1 at 500 nM by HotSpot assay relative to control
T3 sequence (whole entry): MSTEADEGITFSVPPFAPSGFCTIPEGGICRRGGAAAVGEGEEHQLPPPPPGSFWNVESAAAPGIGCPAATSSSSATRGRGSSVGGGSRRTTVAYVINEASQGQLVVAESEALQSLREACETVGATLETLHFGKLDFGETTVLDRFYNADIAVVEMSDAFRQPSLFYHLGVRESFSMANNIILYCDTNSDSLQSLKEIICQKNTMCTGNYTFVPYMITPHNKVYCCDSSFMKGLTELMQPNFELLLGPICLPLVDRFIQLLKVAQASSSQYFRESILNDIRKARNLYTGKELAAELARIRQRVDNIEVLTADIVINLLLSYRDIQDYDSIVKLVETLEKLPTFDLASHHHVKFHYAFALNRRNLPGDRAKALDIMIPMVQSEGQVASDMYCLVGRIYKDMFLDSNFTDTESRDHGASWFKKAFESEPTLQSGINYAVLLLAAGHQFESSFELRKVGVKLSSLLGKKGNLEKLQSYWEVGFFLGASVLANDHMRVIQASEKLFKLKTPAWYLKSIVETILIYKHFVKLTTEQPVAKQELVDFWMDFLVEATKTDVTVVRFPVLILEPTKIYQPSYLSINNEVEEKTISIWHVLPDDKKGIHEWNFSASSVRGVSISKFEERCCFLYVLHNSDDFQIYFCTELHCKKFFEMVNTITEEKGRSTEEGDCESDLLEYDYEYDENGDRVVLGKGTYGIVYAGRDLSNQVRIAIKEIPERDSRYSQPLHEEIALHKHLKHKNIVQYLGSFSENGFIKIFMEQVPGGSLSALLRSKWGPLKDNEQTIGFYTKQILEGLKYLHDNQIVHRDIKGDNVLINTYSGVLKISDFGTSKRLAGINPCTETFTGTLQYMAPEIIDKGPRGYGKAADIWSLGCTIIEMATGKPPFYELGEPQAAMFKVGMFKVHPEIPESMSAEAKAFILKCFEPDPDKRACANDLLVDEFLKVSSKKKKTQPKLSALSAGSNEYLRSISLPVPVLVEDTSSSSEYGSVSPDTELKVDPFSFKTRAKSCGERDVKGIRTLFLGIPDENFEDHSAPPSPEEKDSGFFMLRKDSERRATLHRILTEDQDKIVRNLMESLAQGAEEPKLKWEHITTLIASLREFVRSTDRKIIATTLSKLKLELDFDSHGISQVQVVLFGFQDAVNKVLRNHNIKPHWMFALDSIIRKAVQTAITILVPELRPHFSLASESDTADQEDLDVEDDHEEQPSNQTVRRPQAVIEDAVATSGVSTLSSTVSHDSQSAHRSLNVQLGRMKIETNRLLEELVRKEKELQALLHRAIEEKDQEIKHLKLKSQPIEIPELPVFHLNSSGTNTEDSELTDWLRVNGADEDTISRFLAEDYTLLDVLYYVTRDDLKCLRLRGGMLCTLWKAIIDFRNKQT

[7] = biological target: Serine/threonine-protein kinase PLK1 (Homo sapiens) (UniProt P53350); assay: Inhibition of human PLK1 at 500 nM by HotSpot assay relative to control
Sequence of Serine/threonine-protein kinase PLK1 (Homo sapiens) (P53350 whole entry): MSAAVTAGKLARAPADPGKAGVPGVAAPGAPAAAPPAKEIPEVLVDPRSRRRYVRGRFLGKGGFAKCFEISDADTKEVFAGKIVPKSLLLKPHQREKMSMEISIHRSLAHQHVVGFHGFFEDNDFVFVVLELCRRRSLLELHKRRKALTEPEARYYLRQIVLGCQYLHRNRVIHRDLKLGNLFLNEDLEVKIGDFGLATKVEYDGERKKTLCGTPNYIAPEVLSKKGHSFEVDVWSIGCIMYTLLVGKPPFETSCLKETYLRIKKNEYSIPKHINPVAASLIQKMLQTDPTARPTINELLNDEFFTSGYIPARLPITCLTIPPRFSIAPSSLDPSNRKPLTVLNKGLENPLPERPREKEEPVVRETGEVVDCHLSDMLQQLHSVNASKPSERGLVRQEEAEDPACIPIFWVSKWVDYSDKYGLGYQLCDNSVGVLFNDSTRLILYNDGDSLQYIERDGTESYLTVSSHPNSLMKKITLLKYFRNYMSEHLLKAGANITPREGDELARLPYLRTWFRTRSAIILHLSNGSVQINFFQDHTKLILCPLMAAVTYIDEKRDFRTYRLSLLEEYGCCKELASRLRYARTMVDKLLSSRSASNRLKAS

| SMILES | inhibition [1] [%] | inhibition [2] [%] | inhibition [3] [%] | inhibition [4] [%] | inhibition [5] [%] | inhibition [6] [%] | inhibition [7] [%] |
| --- | --- | --- | --- | --- | --- | --- | --- |
| Oc1n[nH]c2nnc(-c3c(-c4ccccc4)nn4ccccc34)cc12 | 0.57 | 7.2 | 12.8 | 5 | 1.39 | 0.05 | 2.92 |
| Nc1n[nH]c2nnc(-c3c(-c4ccccc4)nn4ccccc34)cc12 | 7.83 | 8.08 | 17.3 | 3.19 | -7.84 | 0.68 | 1.9 |
